The values that follow come from PubChem BioAssay (NCI).

Some test systems named below: CCRF-CEM leukemia; ACHN renal; UACC-257 melanoma; M14 melanoma; SK-OV-3 ovarian; UACC-62 melanoma; OVCAR-4 ovarian; K-562 leukemia; OVCAR-5 ovarian; TK-10 renal.
What all share (assay): NCI-60 cell line screen, 48 h

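In this assay, cells in 96-well plates receive the compound at five concentrations for 48 hours. Endpoints are linearly interpolated between the surrounding concentrations. Abbreviation: GI50, concentration required for 50% inhibition of growth. TGI marks complete inhibition of growth.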 Some results are limits rather than exact numbers.

In the case of `CCCCCCCCCCCCCCCCCC1=NC(C)(C)CN1CC(C)O` (stereo not given), the GI50 was 2.71 µM in the assay on CCRF-CEM leukemia; 7.94 µM with ACHN renal; 22.4 µM in the assay on UACC-257 melanoma; 2.29 µM in the assay with M14 melanoma; 18.8 µM in the assay with SK-OV-3 ovarian; 3.44 µM with UACC-62 melanoma. In addition, the GI50 in the assay with OVCAR-4 ovarian was 12.5 µM; in the assay on K-562 leukemia, 2.45 µM; in the assay on OVCAR-5 ovarian, 15.5 µM; in the assay on TK-10 renal, 20.9 µM. For the same molecule, the TGI in the assay on CCRF-CEM leukemia amounted to 7.39 µM; with ACHN renal, 21.9 µM; with UACC-257 melanoma it was 40.6 µM; in the assay with M14 melanoma, 5.77 µM; with SK-OV-3 ovarian, 37 µM; in the assay with UACC-62 melanoma, 12.5 µM. The TGI was 28.4 µM with OVCAR-4 ovarian, 5.44 µM in the assay on K-562 leukemia, 31.7 µM in the assay on OVCAR-5 ovarian and 39 µM in the assay on TK-10 renal.

For the molecule `NS(=O)(=O)c1ccc(-n2nc3c(c2-c2ccc(Cl)cc2)Cc2ccccc2-3)cc1`, the GI50 in the assay with CCRF-CEM leukemia was 2.96 µM; with ACHN renal it was 19.8 µM; in the assay with UACC-257 melanoma, 20.6 µM; with M14 melanoma it was 13.1 µM; with SK-OV-3 ovarian, 77.1 µM; in the assay on UACC-62 melanoma, 13.7 µM. Moreover, the GI50 is 15 µM in the assay with OVCAR-4 ovarian, 4.98 µM in the assay with K-562 leukemia, 24.2 µM in the assay with OVCAR-5 ovarian and 19.5 µM in the assay with TK-10 renal. For the same molecule, the TGI in the assay on CCRF-CEM leukemia was 9.08 µM; in the assay with ACHN renal it was 34.6 µM; with UACC-257 melanoma, 39.5 µM; with M14 melanoma, 31.5 µM; with SK-OV-3 ovarian, greater than 100 µM; in the assay on UACC-62 melanoma, 26.9 µM. The TGI worked out at 30.3 µM in the assay with OVCAR-4 ovarian, 17.2 µM with K-562 leukemia, 57.4 µM in the assay with OVCAR-5 ovarian and 35.6 µM with TK-10 renal.

For `[C](#Cc1ccccc1)[Hg][C]#Cc1ccccc1`, the GI50 in the assay on CCRF-CEM leukemia is 8.93 µM; in the assay on ACHN renal, 21.1 µM; in the assay with UACC-257 melanoma, 22.5 µM; in the assay on M14 melanoma, 75.1 µM; with SK-OV-3 ovarian, greater than 100 µM; with UACC-62 melanoma, 24.3 µM. In addition, the GI50 with OVCAR-4 ovarian is 18.6 µM; in the assay on K-562 leukemia it was 13.2 µM; in the assay with OVCAR-5 ovarian, 63.1 µM; in the assay on TK-10 renal, 23.8 µM. Moreover, the TGI in the assay on CCRF-CEM leukemia was greater than 100 µM; in the assay with ACHN renal, 41.6 µM; in the assay with UACC-257 melanoma it was 41.6 µM; in the assay on M14 melanoma, greater than 100 µM; with SK-OV-3 ovarian, greater than 100 µM; in the assay on UACC-62 melanoma, 53.7 µM. Also, the TGI in the assay on OVCAR-4 ovarian is 45.8 µM; with K-562 leukemia it was greater than 100 µM; with OVCAR-5 ovarian, greater than 100 µM; in the assay on TK-10 renal, 50.7 µM.

Turning to `CCc1ccc(NC(=O)NC(=O)c2ccccc2[N+](=O)[O-])cc1Oc1ncc(Cl)cn1`, the TGI in the assay with CCRF-CEM leukemia, in the assay on ACHN renal, in the assay with UACC-257 melanoma, in the assay with M14 melanoma, in the assay on SK-OV-3 ovarian and in the assay on UACC-62 melanoma was greater than 100 µM throughout. Further, the TGI with OVCAR-4 ovarian, in the assay with K-562 leukemia, in the assay on OVCAR-5 ovarian and in the assay on TK-10 renal was greater than 100 µM each time.

Turning to `COc1cc(OC)c(C(=O)/C=C/c2cc3c(cc2OCc2ccccc2)OC(C)(C)CC3)cc1CC=C(C)C`, the GI50 in the assay with CCRF-CEM leukemia is 4.02 µM; in the assay with ACHN renal it was 5.42 µM; with UACC-257 melanoma, 13.1 µM; in the assay on M14 melanoma it was 3.63 µM; in the assay with SK-OV-3 ovarian, 7.42 µM; with UACC-62 melanoma, 3.8 µM. The GI50 in the assay on OVCAR-4 ovarian was 4.06 µM; in the assay on K-562 leukemia it was 4.26 µM; in the assay with OVCAR-5 ovarian, 13.4 µM; in the assay with TK-10 renal, 8.89 µM. Also, the TGI is 19.3 µM with CCRF-CEM leukemia; 14.5 µM in the assay with ACHN renal; greater than 25 µM in the assay with UACC-257 melanoma; 9.43 µM in the assay on M14 melanoma; greater than 25 µM with SK-OV-3 ovarian; 10.5 µM in the assay on UACC-62 melanoma. In addition, the TGI was 14.3 µM in the assay on OVCAR-4 ovarian, greater than 25 µM in the assay on K-562 leukemia, greater than 25 µM in the assay with OVCAR-5 ovarian and 19.6 µM with TK-10 renal.

In the case of `COC/C=C\COC`, the TGI in the assay with CCRF-CEM leukemia, in the assay on ACHN renal, with UACC-257 melanoma, in the assay with M14 melanoma, with SK-OV-3 ovarian and with UACC-62 melanoma was greater than 100 µM each time. Also, the TGI with OVCAR-4 ovarian, in the assay on K-562 leukemia, in the assay on OVCAR-5 ovarian and in the assay with TK-10 renal was greater than 100 µM in each case.

Turning to `Cc1nc(-c2ccccc2)n2nc(NCCCN3CCOCC3)ncc12`, the GI50 in the assay with CCRF-CEM leukemia is greater than 25 µM; in the assay with ACHN renal, 10.4 µM; in the assay with UACC-257 melanoma, greater than 25 µM; in the assay on M14 melanoma, 16.5 µM; in the assay with SK-OV-3 ovarian, 6.1 µM; in the assay on UACC-62 melanoma, greater than 25 µM. In addition, the GI50 in the assay on OVCAR-4 ovarian was 15.1 µM; in the assay with K-562 leukemia it was greater than 25 µM; in the assay with OVCAR-5 ovarian it was greater than 25 µM; in the assay with TK-10 renal, 19.1 µM. Besides, the TGI in the assay on CCRF-CEM leukemia is greater than 25 µM; with ACHN renal it was greater than 25 µM; in the assay on UACC-257 melanoma, greater than 25 µM; in the assay on M14 melanoma, greater than 25 µM; with SK-OV-3 ovarian, 17.9 µM; in the assay with UACC-62 melanoma, greater than 25 µM. Moreover, the TGI in the assay with OVCAR-4 ovarian, in the assay on K-562 leukemia, in the assay on OVCAR-5 ovarian and in the assay with TK-10 renal was greater than 25 µM each time.

As to `CCOC(=O)Nc1nc2ccc(OC)cc2s1`, the GI50 in the assay with CCRF-CEM leukemia, with ACHN renal, in the assay with UACC-257 melanoma, in the assay on M14 melanoma, in the assay with SK-OV-3 ovarian and in the assay with UACC-62 melanoma was greater than 100 µM each time. The GI50 in the assay on OVCAR-4 ovarian, with K-562 leukemia, with OVCAR-5 ovarian and in the assay with TK-10 renal was greater than 100 µM in each case. The TGI in the assay with CCRF-CEM leukemia, in the assay with ACHN renal, in the assay on UACC-257 melanoma, with M14 melanoma, in the assay on SK-OV-3 ovarian and in the assay on UACC-62 melanoma was greater than 100 µM each time. Also, the TGI with OVCAR-4 ovarian, in the assay with K-562 leukemia, with OVCAR-5 ovarian and in the assay with TK-10 renal was greater than 100 µM each time.
